Like-named read-outs stand apart in the source and are kept apart here.
Key:
[1] = Variation of the body temperature (duration of action); type: in vivo, male mice (CD1 Charles Rivers)
Procedure: (§1) The test is carried out on male mice (CD1 Charles Rivers) weighing 25-30 g, which have fasted for 6 hours.
The temperature of the body is noted by means of a thermocouple inserted about 1.5 cm in the rectum and connected to an electric temperature recorder. […]
The duration of action of the products is determined, using the doses able to reduce the temperature by 1° to 1.5° C.

Hypothermic activity = type: in vivo, male mice (CD1 Charles Rivers); settings: Mus musculus, read-out: Effective dose (-1° C.)
Procedure: as §1
The temperature of the body is noted by means of a thermocouple inserted about 1.5 cm in the rectum and connected to an electric temperature recorder.
The products are administered by oral or sub-cutaneous route and the temperatures are noted at the instant 0 and at 30 minutes, 1 hour, 2 hours and 2-and-a-half hours after treatment.
The degree of hypothermia is evaluated as the difference between the treated animals and the controls, and the dose necessary to reduce the body temperature by 1° C. is noted.

[2] = system: ileum isolated from guinea-pig; test: Test of ileum isolated from guinea-pig; settings: Cavia porcellus, agonist activity, Tyrode solution, 37° C., read-out: pD2 (negative logarithm of the dose which produces 50% of the maximum effect) (converted)
Procedure: Pieces of ileum are removed from guinea-pigs killed by decapitation. The isolated ileum is placed in 10 cm^3 of Tyrode solution at 37° C. and aerated with a mixture of oxygen (95%) and carbon dioxide gas (5%). The contractions due to the products are registered by means of a detector connected to a polygraph. […].
The possible antagonist activity of the products is tested vis-a-vis acetylcholine.
The agonist activity is expressed in pD2 (negative logarithm of the dose which produces 50% of the maximum effect).
The antagonist activity is expressed in DE50 (dose reducing by 50% the maximum response induced by acetylcholine).

in vivo [3] = settings: mouse, po
Procedure: The test was carried out on male mice (CD1 Charles Rivers), of 22 to 24 g, without food for 16 hours. […] The mortality is noted during the 7 days following the treatment.

in vivo [4] = test: in vivo; design: species or system male mice (CD1 Charles Rivers); settings: mouse, in vivo; oral route; male CD1 mice; method of Miller and Tainter; read-out: DE50 (dose which causes diarrhoea in 50% of the animals)
Procedure: The test is carried out on male mice (CD1 Charles Rivers) weighing 25 to 30 g, which have fasted for 6 hours. The product dissolved at 5% in methocel is administered by oral route by means of an oesophage probe.
Control animals receive only the excipient.
After treatment, the animals are placed separately in cages of which the base is covered with blotting paper, and they are put under observation for 30, 60, 120 and 180 minutes.
The sheets of absorbent paper are changed after each observation.
The consistency of the feces is evaluated according to the method of Randall and Baruth (Arch. Int. Pharmacodyn. 220, 94, 1976) according to the following scale of values.
1: feces slightly soft, with or without a damp halo,
2: feces slightly soft, with a well-defined circle of humidity,
3: feces soft with a large circle of humidity,
4: feces without consistency with a very large circle of humidity.
For each product, the dose is noted which causes diarrhoea in 50% of the animals according to the method of Miller and Tainter (Proc. Soc. Exp. Biol. Med., 57, 261, 1944).

## COC(=O)C1=CCCN(C)C1 [Arecoline HBr, reference compound]
[1]; 3.5 mg/kg sc, 0 min
  Variations of the body temperature: -0.1 °C
[1]; 3.5 mg/kg sc, 30 min
  Variations of the body temperature: -1.5 °C
[1]; 3.5 mg/kg sc, 60 min
  Variations of the body temperature: -0.1 °C
[1]; 3.5 mg/kg sc, 120 min
  Variations of the body temperature: +0.2 °C
[1]; 3.5 mg/kg sc, 180 min
  Variations of the body temperature: +0.2 °C
[1]; 200 mg/kg os, 0 min
  Variations of the body temperature: +0.1 °C
[1]; 200 mg/kg os, 30 min
  Variations of the body temperature: -1.1 °C
[1]; 200 mg/kg os, 60 min
  Variations of the body temperature: -1.0 °C
[1]; 200 mg/kg os, 120 min
  Variations of the body temperature: -0.2 °C
[1]; 200 mg/kg os, 180 min
  Variations of the body temperature: -0.1 °C

## CCOC(=O)N1CCC=C(C=NOC)C1 [Example 2, Methyl ether of 1-ethoxycarbonyl-1,2,5,6-tetrahydropyridin-3-carboxaldehydeoxime]
Hypothermic activity; oral route (O.R.)
  ED (-1 C): 3.9 mg/kg
Hypothermic activity; sub-cutaneous route (SC.R)
  ED (-1 C): 3.6 mg/kg
[2]
  EC50: 33.9 µM
[1]; 5. mg/kg os, 0 min
  Variations of the body temperature: +0.2 °C
[1]; 5. mg/kg os, 30 min
  Variations of the body temperature: -1.2 °C
[1]; 5. mg/kg os, 60 min
  Variations of the body temperature: -1.1 °C
[1]; 5. mg/kg os, 120 min
  Variations of the body temperature: -0.1 °C
[1]; 5. mg/kg sc, 0 min
  Variations of the body temperature: +0.2 °C
[1]; 5. mg/kg sc, 30 min
  Variations of the body temperature: -1.5 °C
[1]; 5. mg/kg sc, 60 min
  Variations of the body temperature: -1.4 °C
[1]; 5. mg/kg sc, 120 min
  Variations of the body temperature: -0.1 °C
In vivo [3]
  LD50 at 168 h: 175 mg/kg
In vivo [4]
  ED50: 25 mg/kg

## C=CCOC(=O)N1CCC=C(C=NOC)C1 [Example 4, Methyl ether of 1-allyloxycarbonyl-1,2,5,6-tetrahydropyridin-3-carboxaldehyde oxime]
Hypothermic activity; oral route (O.R.)
  ED (-1 C): 1.6 mg/kg
Hypothermic activity; sub-cutaneous route (SC.R)
  ED (-1 C): 1.8 mg/kg
[2]
  EC50: > 100 µM
[1]; 2. mg/kg os, 0 min
  Variations of the body temperature: -0.1 °C
[1]; 2. mg/kg os, 30 min
  Variations of the body temperature: -1.2 °C
[1]; 2. mg/kg os, 60 min
  Variations of the body temperature: -1.1 °C
[1]; 2. mg/kg os, 120 min
  Variations of the body temperature: -0.1 °C
[1]; 2. mg/kg os, 180 min
  Variations of the body temperature: -0.1 °C
[1]; 2. mg/kg sc, 0 min
  Variations of the body temperature: -0.1 °C
[1]; 2. mg/kg sc, 30 min
  Variations of the body temperature: -0.9 °C
[1]; 2. mg/kg sc, 60 min
  Variations of the body temperature: -1.0 °C
[1]; 2. mg/kg sc, 120 min
  Variations of the body temperature: -0.2 °C
[1]; 2. mg/kg sc, 180 min
  Variations of the body temperature: -0.1 °C
In vivo [3]
  LD50 at 168 h: 175 mg/kg
In vivo [4]
  ED50: 3 mg/kg

## CON=CC1=CCCN(C(=O)Oc2ccccc2)C1 [Example 6, Methyl ether of 1-phenyloxycarbonyl-1,2,5,6-tetrahydropyridin-3-carboxaldehyde oxime]
Hypothermic activity; oral route (O.R.)
  ED (-1 C): 4.6 mg/kg
Hypothermic activity; sub-cutaneous route (SC.R)
  ED (-1 C): 2.3 mg/kg
[2]
  EC50: > 100 µM
[1]; 3.5 mg/kg sc, 0 min
  Variations of the body temperature: -0.1 °C
[1]; 3.5 mg/kg sc, 30 min
  Variations of the body temperature: -0.6 °C
[1]; 3.5 mg/kg sc, 60 min
  Variations of the body temperature: -1.4 °C
[1]; 3.5 mg/kg sc, 120 min
  Variations of the body temperature: -0.9 °C
[1]; 3.5 mg/kg sc, 180 min
  Variations of the body temperature: 0.1 °C
[1]; 7.5 mg/kg os, 0 min
  Variations of the body temperature: -0.1 °C
[1]; 7.5 mg/kg os, 30 min
  Variations of the body temperature: -1.1 °C
[1]; 7.5 mg/kg os, 60 min
  Variations of the body temperature: -1.6 °C
[1]; 7.5 mg/kg os, 120 min
  Variations of the body temperature: -0.6 °C
In vivo [3]
  LD50 at 168 h: 500 mg/kg
In vivo [4]
  ED50: 100 mg/kg

## CON=CC1=CCCN(C(=O)Oc2ccc(Br)cc2)C1 [Example 19, 1-(4-bromophenyloxycarbonyl)-1,2,5,6-tetrahydropyridine-3-carboxaldehyde-O-methyloxime]
Hypothermic activity; oral route (O.R.)
  ED (-1 C): 1.7 mg/kg
Hypothermic activity; sub-cutaneous route (SC.R)
  ED (-1 C): 1.3 mg/kg
[2]
  EC50: > 100 µM
In vivo [3]
  LD50 at 168 h: > 1000 mg/kg
In vivo [4]
  ED50: > 50 mg/kg

## CON=CC1=CCCN(C(=O)Oc2ccc(F)cc2)C1 [Example 20, 1(4-fluorophenyloxycarbonyl)-1,2,5,6-tetrahydropyridine-3-carboxaldehyde-O-methyloxime]
Hypothermic activity; oral route (O.R.)
  ED (-1 C): 3.2 mg/kg
Hypothermic activity; sub-cutaneous route (SC.R)
  ED (-1 C): 1.5 mg/kg
[2]
  EC50: > 100 µM
In vivo [3]
  LD50 at 168 h: 500 mg/kg
In vivo [4]
  ED50: > 50 mg/kg

## CON=CC1=CCCN(C(=O)Oc2ccc(C)cc2)C1 [Example 21, 1-(4-methylphenyloxycarbonyl)-1,2,5,6-tetrahydropyridine-3-carboxaldehyde-O-methyloxime]
Hypothermic activity; oral route (O.R.)
  ED (-1 C): 1.5 mg/kg
Hypothermic activity; sub-cutaneous route (SC.R)
  ED (-1 C): 1.2 mg/kg
[2]
  EC50: > 100 µM
In vivo [3]
  LD50 at 168 h: 250 mg/kg
In vivo [4]
  ED50: > 50 mg/kg

## CON=CC1=CCCN(C(=O)Oc2ccc(C(C)(C)CC(C)(C)C)cc2)C1 [Example 22, 1-[4-(1,1,3,3-tetramethylbutyl)phenyloxycarbonyl]-1,2,5,6-tetrahydropyridine-3-carboxaldehyde-O-methyloxime]
Hypothermic activity; oral route (O.R.)
  ED (-1 C): 7 mg/kg
Hypothermic activity; sub-cutaneous route (SC.R)
  ED (-1 C): 15 mg/kg
[2]
  EC50: 100 µM
In vivo [3]
  LD50 at 168 h: 500 mg/kg
In vivo [4]
  ED50: > 50 mg/kg

Reference: US5231107A, “Derivatives of the oxime of 1,2,5,6-tetrahydropyridine 3-carboxaldehyde, the process for their preparation, their use as medicaments and the compositions containing them” (priority 1987, dated 1993)
